ChEMBL document CHEMBL5380791, “Modular Biomimetic Strategy Enabled Discovery of Simplified Pseudo-Natural Macrocyclic P-Glycoprotein Inhibitors Capable of Overcoming Multidrug Resistance” (J Med Chem, 2023)
Each block holds one compound with its values, some of them ahead of it. Calls of active or inactive are those of the source. The rule behind the calls is not given here.

Legend:
[1] = tested on: KBv200; assay: Reversal of vinorelbine resistance in human KBv200 cells assessed as reduction in cell viability incubated for 72 hrs in presence of vinorelbine (reference value: 224 to 228.30 nM); assay type: functional, cell-based; details: KBv200, 72 h
[2] = tested on: KBv200; assay: Reversal fold, ratio of vinorelbine IC50 for cytotoxicity against human KBv200 cells over test compound IC50 for reversal of vinorelbine resistance in human KBv200 cells; assay type: functional
[3] = tested on: KBv200; assay: Antitumor activity against human KBv200 cells xenografted in Balb/cA nude mouse assessed as mean tumor volume at 8 mg/kg, iv administered as single dose and measured on day 0; assay type: functional
[4] = tested on: KBv200; assay: Antitumor activity against human KBv200 cells xenografted in Balb/cA nude mouse assessed as mean tumor volume at 8 mg/kg, iv q4d administered for 13 days; assay type: functional; details: time 13 day
[5] = tested on: KBv200; assay: Antitumor activity against human KBv200 cells xenografted in Balb/cA nude mouse assessed as T/C ratio at 8 mg/kg, iv q4d administered for 13 days; assay type: functional; details: time 13 day
[6] = tested on: KBv200; assay: Antitumor activity against human KBv200 cells xenografted in Balb/cA nude mouse assessed as tumor growth inhibition at 8 mg/kg, iv q4d administered for 13 days; assay type: functional; details: KBv200, 312 h, time 13 day
[7] = Toxicity in Balb/cA nude mouse xenografted with human KBv200 cells assessed as changes in body weight at 75 mg/kg, ip qd administered for 13 days in presence of vinorelbine; assay type: organism-based; details: in vivo, 312 h, time 13 day
[8] = Toxicity in Balb/cA nude mouse xenografted with human KBv200 cells assessed as mortality at 75 mg/kg, ip qd administered for 13 days in presence of vinorelbine; assay type: organism-based; details: in vivo, 312 h, time 13 day
[9] = tested on: KBv200; assay: Induction of apoptosis in human KBv200 cells assessed as increase in cleaved PARP level at 5 uM incubated for 24 hrs by Western blotting analysis; assay type: functional, cell-based
[10] = tested on: KBv200; assay: Induction of apoptosis in human KBv200 cells assessed as increase in cleaved caspase 3 level at 5 uM incubated for 24 hrs by Western blotting analysis; assay type: functional, cell-based
[11] = tested on: KBv200; assay: Induction of apoptosis in human KBv200 cells assessed as increase in cleaved caspase 9 level at 5 uM incubated for 24 hrs by Western blotting analysis; assay type: functional, cell-based
[12] = tested on: KBv200; assay: Reversal of paclitaxel resistance in human KBv200 cells assessed as reduction in cell viability incubated for 72 hrs in presence of paclitaxel (reference value: 392.9+/-196.5 nM); assay type: functional, cell-based; details: KBv200, 72 h
[13] = tested on: KBv200; assay: Reversal of adriamycin resistance in human KBv200 cells assessed as reduction in cell viability incubated for 72 hrs in presence of adriamycin (reference value: 1291.2+/-308.9 nM); assay type: functional, cell-based; details: KBv200, 72 h
[14] = tested on: KB; assay: Reversal of vinorelbine resistance in human KB cells assessed as reduction in cell viability incubated for 72 hrs in presence of vinorelbine (reference value: 7.4+/-2.2 nM); assay type: functional, cell-based
[15] = tested on: K562/Adr; assay: Reversal of vinorelbine resistance in human K562/Adr cells assessed as reduction in cell viability incubated for 72 hrs in presence of vinorelbine (reference value: 7320.6+/-2115.2 nM); assay type: functional, cell-based
[16] = tested on: K562; assay: Reversal of vinorelbine resistance in human K562 cells assessed as reduction in cell viability incubated for 72 hrs in presence of vinorelbine (reference value: 5.9+/-0.2 nM); assay type: functional, cell-based; details: K562, 72 h
[17] = tested on: NCI/ADR-RES; assay: Reversal of vinorelbine resistance in human NCI/ADR-RES cells assessed as reduction in cell viability incubated for 72 hrs in presence of vinorelbine (reference value: 6125.7+/-3267.7 nM); assay type: functional, cell-based
[18] = tested on: OVCAR-8; assay: Reversal of vinorelbine resistance in human OVCAR-8 cells assessed as reduction in cell viability incubated for 72 hrs in presence of vinorelbine (reference value: 16.2+/-4.7 nM); assay type: functional, cell-based; details: OVCAR-8, 72 h

SMILES: COc1ccc(/C2=C/C=C(/c3ccccc3)CNC(=O)CCCCCCCCCCCNC(=O)[C@H](C(C)C)NC2=O)cc1OC
- IC50 ([1]; read-out: IC50): 3.65 nM
- Ratio IC50 [2]: 63

SMILES: CCC1=C[C@@H]2CN(C1)Cc1c([nH]c3ccccc13)[C@@](C(=O)OC)(c1cc3c(cc1OC)N(C)[C@H]1[C@@](O)(C(=O)OC)[C@H](OC(C)=O)[C@]4(CC)C=CCN5CC[C@]31[C@@H]54)C2 [VINORELBINE]
- Activity [3]: 122.3 mm3
- Activity [4]: 1727.4 mm3
- T/C [5]: 82%
- inhibition in vivo at 8 mg/kg [6]: 18%
- Activity [7]: Non-Toxic
- Activity [8]: Non-Toxic
- Activity [9]: inactive
- Activity [10]: inactive
- Activity [11]: inactive

SMILES: NC(=O)CC[C@@H]1NC(=O)/C(c2ccccc2)=C\C=C(\c2ccccc2)CNC(=O)CCCCCCCCCCCNC1=O
- IC50 ([1]; read-out: IC50): 210 nM
- Ratio IC50 [2]: 1

SMILES: CC(=O)N[C@@H]1[C@@H](OC(C)=O)[C@H](OC(C)=O)[C@@H](COC(C)=O)O[C@H]1n1cc(C[C@@H]2NC(=O)/C(c3ccccc3)=C\C=C(\c3ccccc3)CNC(=O)CCCCCCCCCCCNC2=O)nn1
- IC50 ([1]; read-out: IC50): 248 nM
- Ratio IC50 [2]: 0.9

SMILES: O=C1CCCCCCCCCCCNC(=O)[C@H](Cc2ccccc2)NC(=O)/C(c2ccccc2)=C\C=C(\c2ccccc2)CN1
- IC50 ([1]; read-out: IC50): 0.38 nM
- Ratio IC50 [2]: 601

SMILES: COc1ccc(/C2=C/C=C(/c3ccccc3)CNC(=O)CCCCCCCCCCCNC(=O)[C@H](C(C)C)NC2=O)cc1
- IC50 ([1]; read-out: IC50): 0.44 nM
- Ratio IC50 [2]: 519

SMILES: CC(C)[C@@H]1NC(=O)/C(c2ccccc2)=C\C=C(\c2ccccc2)CNC(=O)CCCCCCCCCCCNC1=O
- IC50 ([1]; read-out: IC50): 1.19 nM
- Ratio IC50 [2]: 192

SMILES: O=C1CCCCCCCCCCCNC(=O)[C@H](Cc2c[nH]c3ccccc23)NC(=O)/C(c2ccccc2)=C\C=C(\c2ccccc2)CN1
- IC50 ([1]; read-out: IC50): 140 nM
- Ratio IC50 [2]: 2

SMILES: O=C1CCCCCCCCCCCNC(=O)[C@H](Cc2ccc(O)cc2)NC(=O)/C(c2ccccc2)=C\C=C(\c2ccccc2)CN1
- IC50 ([1]; read-out: IC50): 1.76 nM
- Ratio IC50 [2]: 130

SMILES: O=C1CCCCCCCCCCCNC(=O)[C@H](Cc2ccccc2)NC(=O)/C(c2cccc3ccccc23)=C\C=C(\c2ccccc2)CN1
- IC50 ([1]; read-out: IC50): 0.05 nM
- Ratio IC50 [2]: 4566

SMILES: NCCCC[C@@H]1NC(=O)/C(c2ccccc2)=C\C=C(\c2ccccc2)CNC(=O)CCCCCCCCCCCNC1=O
- IC50 ([1]; read-out: IC50): 289 nM
- Ratio IC50 [2]: 0.8

SMILES: CC(C)[C@@H]1NC(=O)/C(c2ccccc2)=C\C=C(\c2ccc(F)cc2)CNC(=O)CCCCCCCCCCCNC1=O
- IC50 ([1]; read-out: IC50): 0.42 nM
- Ratio IC50 [2]: 543

SMILES: CC(C)[C@@H]1NC(=O)/C(c2ccccc2)=C\C=C(\c2ccccc2)CNC(=O)CCOCCOCCOCCNC1=O
- IC50 ([1]; read-out: IC50): 127 nM
- Ratio IC50 [2]: 1.8

SMILES: COc1ccc(/C2=C/C=C(/c3ccccc3)C(=O)N[C@@H](C(C)C)C(=O)NCCCCCCCCCCCC(=O)NC2)cc1
- IC50 ([1]; read-out: IC50): 1.54 nM
- Ratio IC50 [2]: 148

SMILES: CC(C)[C@@H]1NC(=O)/C(c2ccccc2)=C\C=C(\c2ccccc2)CNC(=O)CCCCCCCCCNC1=O
- IC50 ([1]; read-out: IC50): 4.57 nM
- Ratio IC50 [2]: 50

- IC50 [14]: 4.4 nM
- IC50 [15]: 446 nM
- IC50 [16]: 4.3 nM
- IC50 [18]: 8.5 nM
SMILES: COc1ccc(CCN(C)CCCC(C#N)(c2ccc(OC)c(OC)c2)C(C)C)cc1OC (stereo not drawn) [VERAPAMIL]
- IC50 [1]: 6.96 nM
- Ratio IC50 [2]: 33
- IC50 [12]: 18.2 nM
- IC50 [13]: 145 nM
- IC50 [17]: 289 nM

SMILES: CC(C)[C@@H]1NC(=O)/C(c2cccc3ccccc23)=C\C=C(\c2ccccc2)CNC(=O)CCCCCCCCCCCNC1=O
- IC50 ([1]; read-out: IC50): 0.3 nM
- Ratio IC50 [2]: 761

SMILES: CC(C)[C@@H]1NC(=O)/C(c2ccccc2)=C\C=C/CNC(=O)CCCCCCCCCCCNC1=O
- IC50 ([1]; read-out: IC50): 3.76 nM
- Ratio IC50 [2]: 61

SMILES: O=C1CCCCCCCCCCCNC(=O)CNC(=O)/C(c2ccccc2)=C\C=C(\c2ccccc2)CN1
- IC50 ([1]; read-out: IC50): 24.5 nM
- Ratio IC50 [2]: 9

SMILES: CC(C)[C@@H]1NC(=O)/C(c2ccc(Br)cc2)=C\C=C(\c2ccccc2)CNC(=O)CCCCCCCCCCCNC1=O
- IC50 ([1]; read-out: IC50): 0.4 nM
- Ratio IC50 [2]: 570

SMILES: O=C1CCCCCCCCCCCNC(=O)[C@H](Cc2cn([C@@H]3O[C@H](CO)[C@H](O)[C@H](O)[C@H]3O)nn2)NC(=O)/C(c2ccccc2)=C\C=C(\c2ccccc2)CN1
- IC50 ([1]; read-out: IC50): 140 nM
- Ratio IC50 [2]: 1.6

SMILES: O=C1CCCCCCCCCCCNC(=O)[C@H](Cc2cn([C@@H]3O[C@H](CO)[C@@H](O)[C@H](O)[C@H]3O)nn2)NC(=O)/C(c2ccccc2)=C\C=C(\c2ccccc2)CN1
- IC50 ([1]; read-out: IC50): 169 nM
- Ratio IC50 [2]: 1.3

SMILES: O=C1CCCCCCCCCCCNC(=O)[C@@H]2CCCN2C(=O)/C(c2ccccc2)=C\C=C(\c2ccccc2)CN1
- IC50 ([1]; read-out: IC50): 8.63 nM
- Ratio IC50 [2]: 26

SMILES: CC(C)C[C@@H]1NC(=O)/C(c2ccccc2)=C\C=C(\c2ccccc2)CNC(=O)CCCCCCCCCCCNC1=O
- IC50 ([1]; read-out: IC50): 0.55 nM
- Ratio IC50 [2]: 415

SMILES: CC(C)[C@H](NC(=O)/C(=C/C=C(/CNC(=O)CCCCCCCCCCCN)c1ccccc1)c1ccccc1)C(=O)O
- IC50 ([1]; read-out: IC50): 199 nM
- Ratio IC50 [2]: 1.1

SMILES: CC(C)[C@@H]1NC(=O)C(c2ccccc2)CCC(c2ccccc2)CNC(=O)CCCCCCCCCCCNC1=O (stereo partly drawn)
- IC50 ([1]; read-out: IC50): 3.58 nM
- Ratio IC50 [2]: 64

SMILES: CC(C)[C@@H]1NC(=O)/C(c2ccccc2)=C/C=C(/c2ccccc2)CNC(=O)CCCCCCCNC1=O
- IC50 ([1]; read-out: IC50): 46.6 nM
- Ratio IC50 [2]: 5

SMILES: CSCC[C@@H]1NC(=O)/C(c2ccccc2)=C\C=C(\c2ccccc2)CNC(=O)CCCCCCCCCCCNC1=O
- IC50 ([1]; read-out: IC50): 1.24 nM
- Ratio IC50 [2]: 184

SMILES: CC(C)[C@H]1NC(=O)/C(c2cccc3ccccc23)=C\C=C(\c2ccccc2)CNC(=O)CCCCCCCCCCCNC1=O
- IC50 ([1]; read-out: IC50): 0.21 nM
- Ratio IC50 [2]: 1291

SMILES: CC(C)C1NC(=O)/C(c2ccccc2)=C\C=C(\c2ccccc2)CNC(=O)CCCCCCCCCCCNC1=O (stereo not drawn)
- IC50 ([1]; read-out: IC50): 1.13 nM
- Ratio IC50 [2]: 202

SMILES: CC(=O)N[C@@H]1[C@@H](O)[C@H](O)[C@@H](CO)O[C@H]1n1cc(C[C@@H]2NC(=O)/C(c3ccccc3)=C\C=C(\c3ccccc3)CNC(=O)CCCCCCCCCCCNC2=O)nn1
- IC50 ([1]; read-out: IC50): 152 nM
- Ratio IC50 [2]: 1.5

SMILES: C#CC[C@@H]1NC(=O)/C(c2ccccc2)=C\C=C(\c2ccccc2)CNC(=O)CCCCCCCCCCCNC1=O
- IC50 ([1]; read-out: IC50): 3.64 nM
- Ratio IC50 [2]: 63
